# Measured values published in patent US20050146723A1, “Method for measuring surface plasmon resonance” (FUJI PHOTO FILM CO., LTD., priority 2003, published 2005).
# Test system: trypsin
# Experiment: Evaluation of leupeptin-binding ability on trypsin-immobilized chip by surface plasmon resonance
# Conditions: 10 min after initiation of replacement
# Method: The solution in the above-describe dextran measurement chip was removed therefrom. Thereafter, 70 μl of a mixed solution consisting of 200 mM EDC (N-ethyl-N′-(3-dimethylaminopropyl)carbodiimide hydrochloride) and 50 mM NHS (N-hydroxysuccinimide) was added to the measurement chip, and it was then left for 10 minutes. The mixed solution was removed from the measurement chip, and the chip was then washed with 100 μl of water 3 times, and then with 100 μl of buffer 1 (100 mM HEPES (N-2-hydroxyethylpiperazin-N′-2-ethanesulfonic acid), 150 mM NaCl, 10 mM CaCl2) 3 times. The chip containing 100 μl of buffer 1 was installed in the surface plasmon resonance measurement device of the present invention. The inside of the chip was replaced with a trypsin solution (produced by dissolving trypsin in buffer 1 to a concentration of 1 mg/ml), and it was then left for 30 minutes, so as to immobilize trypsin. Thereafter, the inside of the chip was replaced with a 1 M ethanolamine solution, and it was then left for 10 minutes. Thereafter, the inside of the chip was washed with 100 μl of buffer 1 ten times. The amount of a change in resonance signals due to immobilization of trypsin was 2,000 RU.
# With regard to the trypsin-immobilized chip of the present invention, the dielectric block was capped with silicon rubber, so as to produce a cell with an internal volume of 15 μl. In the case of such a block cell, the volume of the cell is determined with a space surrounded by the measurement chip and the cap. Two holes each having a diameter of 1 mm were formed through the silicon rubber used as a cap, and a Teflon tube having an inside diameter of 0.5 mm and an outside diameter of 1 mm was passed through each of these holes, so as to produce a flow channel. Likewise, a cap and a flow channel were produced for a reference chip. Thereafter, the two chips were connected in series, so as to produce a flow channel system. Each of the two chips in this flow channel system was installed in the surface plasmon resonance measurement device of the present invention.
# The inside of the flow channel system was filled with buffer 2 (10 mM HEPES, 150 mM NaCl). Defining the state before the exchange of the liquid as a standard, a change in signals was measured at intervals of 0.5 seconds. The inside of the flow channel system was replaced with a leupeptin solution produced by dissolving leupeptin in buffer 2 to a concentration of 1 μg/ml) by each method described in Table 1. The level of noise generated on the reference chip side at 2 to 10 minutes after initiation of the replacement, and changes in signals on the trypsin-immobilized chip side and on the reference chip side at 10 minutes after initiation of the replacement, are shown in Table 1. In order to obtain binding detection data with high reliability, it is preferable that the width of noise level (the difference between the maximum and the minimum in a change in signals) be within 10 RU, and that the base line fluctuation, that is, the change in signals on the reference chip side be within 10 RU. More preferably, the above values are both within 5 RU.
# The inside of the flow channel system was filled with buffer 2 (10 mM HBPES, 150 mM NaCl). Defining the state before the exchange of the liquid as a standard, a change in signals was measured at intervals of 0.5 seconds. The inside of the flow channel system was replaced with a leupeptin solution (produced by dissolving leupeptin in buffer 2 to a concentration of 1 μg ml) by each method described in Table 2. The level of noise generated on the reference chip side at 2 to 10 minutes after initiation of the replacement, and changes in signals on the trypsin-immobilized chip side and on the reference chip side at 10 minutes after initiation of the replacement, are shown in Table 2. […]
compound,measurement,setting,value
CC(=O)N[C@@H](CC(C)C)C(=O)N[C@@H](CC(C)C)C(=O)N[C@H](C=O)CCCNC(=N)N [leupeptin],Signal change Immobilized chip,"Table 1 method No. 1: leupeptin 1 μg/ml, flow 4 ml/min, exchange 0.125 min, termination 9.875 min, Ve/Vs 16.7",19 RU
same,Signal change Immobilized chip,"Table 1 method No. 2: leupeptin 1 μg/ml, flow 4 ml/min, exchange 0.25 min, termination 9.75 min, Ve/Vs 33.3",21 RU
same,Signal change Immobilized chip,"Table 1 method No. 3: leupeptin 1 μg/ml, flow 4 ml/min, exchange 1 min, termination 9 min, Ve/Vs 133.3",20 RU
same,Signal change Immobilized chip,"Table 1 method No. 4: leupeptin 1 μg/ml, flow 4 ml/min, exchange 1.5 min, termination 8.5 min, Ve/Vs 200.0",21 RU
same,Signal change Immobilized chip,"Table 1 method No. 5 (comparative): leupeptin 1 μg/ml, flow 4 ml/min, exchange 10 min, termination 0 min, Ve/Vs 1333.3",12 RU
same,Signal change Immobilized chip,"Table 1 method No. 6 (comparative): leupeptin 1 μg/ml, flow 2 ml/min, exchange 10 min, termination 0 min, Ve/Vs 666.7",25 RU
same,Signal change Immobilized chip,"Table 1 method No. 7 (comparative): leupeptin 1 μg/ml, flow 1 ml/min, exchange 10 min, termination 0 min, Ve/Vs 333.3",18 RU
same,Signal change Immobilized chip,"Table 1 method No. 8 (comparative): leupeptin 1 μg/ml, flow 0.5 ml/min, exchange 10 min, termination 0 min, Ve/Vs 166.7",26 RU
same,Signal change Immobilized chip,"Table 2 method No. 1: leupeptin 1 μg ml, flow 4 ml/min, exchange 0.125 min, termination 9.875 min, Ve/Vs 16.7",19 RU
same,Signal change Immobilized chip,"Table 2 method No. 2: leupeptin 1 μg ml, flow 4 ml/min, exchange 0.25 min, termination 9.75 min, Ve/Vs 33.3",21 RU
same,Signal change Immobilized chip,"Table 2 method No. 3 (comparative): leupeptin 1 μg ml, flow 4 ml/min, exchange 10 min, termination 0 min, Ve/Vs 1333.3",12 RU
same,Signal change Immobilized chip,"Table 2 method No. 4 (comparative): leupeptin 1 μg ml, flow 2 ml/min, exchange 10 min, termination 0 min, Ve/Vs 666.7",25 RU
same,Signal change Immobilized chip,"Table 2 method No. 5 (comparative): leupeptin 1 μg ml, flow 1 ml/min, exchange 10 min, termination 0 min, Ve/Vs 333.3",18 RU
same,Signal change Immobilized chip,"Table 2 method No. 6 (comparative): leupeptin 1 μg ml, flow 0.5 ml/min, exchange 10 min, termination 0 min, Ve/Vs 166.7",26 RU
same,Signal change Immobilized chip,"Table 2 method No. 7: leupeptin 1 μg ml, flow 0.2 ml/min, exchange 10 min, termination 0 min, Ve/Vs 66.7",22 RU
same,Signal change Immobilized chip,"Table 2 method No. 8: leupeptin 1 μg ml, flow 0.1 ml/min, exchange 10 min, termination 0 min, Ve/Vs 33.3",20 RU
